System: SEM cells
Assay: cell viability relative to DMSO control; higher = less cytotoxic
Conditions: 48 h
Method in brief: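 Before seeding, each leukemia line was adapted for at least four passages in each medium. NOMO1 or SEM cells (500 cells/well) and P12-Ichikawa cells (1000 cells/well) went into 1536-well plates at 5 μl, then received library compounds in DMSO by pin dosing across 11 threefold concentrations, 47 μM to 0.79 nM. Readout was CellTiter-Glo One luminescence after 48 h at 37°C, and viability is given as a per-plate percentage of DMSO wells, with cell-free wells as background.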

[1] = HPLM + 10% dialyzed FBS, 0.000781 µM
[2] = HPLM + 10% dialyzed FBS, 0.00234 µM
[3] = HPLM + 10% dialyzed FBS, 0.00702 µM
[4] = HPLM + 10% dialyzed FBS, 0.0211 µM
[5] = HPLM + 10% dialyzed FBS, 0.0632 µM
[6] = HPLM + 10% dialyzed FBS, 0.19 µM
[7] = HPLM + 10% dialyzed FBS, 0.569 µM
[8] = HPLM + 10% dialyzed FBS, 1.71 µM
[9] = HPLM + 10% dialyzed FBS, 5.12 µM
[10] = HPLM + 10% dialyzed FBS, 15.4 µM
[11] = HPLM + 10% dialyzed FBS, 46.1 µM
[12] = RPMI 5 mM glucose + 10% FBS, 0.000781 µM
[13] = RPMI 5 mM glucose + 10% FBS, 0.00234 µM
[14] = RPMI 5 mM glucose + 10% FBS, 0.00702 µM
[15] = RPMI 5 mM glucose + 10% FBS, 0.0211 µM
[16] = RPMI 5 mM glucose + 10% FBS, 0.0632 µM
[17] = RPMI 5 mM glucose + 10% FBS, 0.19 µM
[18] = RPMI 5 mM glucose + 10% FBS, 0.569 µM
[19] = RPMI 5 mM glucose + 10% FBS, 1.71 µM
[20] = RPMI 5 mM glucose + 10% FBS, 5.12 µM
[21] = RPMI 5 mM glucose + 10% FBS, 15.4 µM
[22] = RPMI 5 mM glucose + 10% FBS, 46.1 µM
[23] = RPMI 5 mM glucose + 10% dialyzed FBS, 0.000781 µM
[24] = RPMI 5 mM glucose + 10% dialyzed FBS, 0.00234 µM
[25] = RPMI 5 mM glucose + 10% dialyzed FBS, 0.00702 µM
[26] = RPMI 5 mM glucose + 10% dialyzed FBS, 0.0211 µM
[27] = RPMI 5 mM glucose + 10% dialyzed FBS, 0.0632 µM
[28] = RPMI 5 mM glucose + 10% dialyzed FBS, 0.19 µM
[29] = RPMI 5 mM glucose + 10% dialyzed FBS, 0.569 µM
[30] = RPMI 5 mM glucose + 10% dialyzed FBS, 1.71 µM
[31] = RPMI 5 mM glucose + 10% dialyzed FBS, 5.12 µM
[32] = RPMI 5 mM glucose + 10% dialyzed FBS, 15.4 µM
[33] = RPMI 5 mM glucose + 10% dialyzed FBS, 46.1 µM

SMILES | cell viability [1] [%] | cell viability [2] [%] | cell viability [3] [%] | cell viability [4] [%] | cell viability [5] [%] | cell viability [6] [%] | cell viability [7] [%] | cell viability [8] [%] | cell viability [9] [%] | cell viability [10] [%] | cell viability [11] [%] | cell viability [12] [%] | cell viability [13] [%] | cell viability [14] [%] | cell viability [15] [%] | cell viability [16] [%] | cell viability [17] [%] | cell viability [18] [%] | cell viability [19] [%] | cell viability [20] [%] | cell viability [21] [%] | cell viability [22] [%] | cell viability [23] [%] | cell viability [24] [%] | cell viability [25] [%] | cell viability [26] [%] | cell viability [27] [%] | cell viability [28] [%] | cell viability [29] [%] | cell viability [30] [%] | cell viability [31] [%] | cell viability [32] [%] | cell viability [33] [%]
O=C1CSC(=O)N1C(CCc1ccncc1)COc1ccc(-c2cccc([N+](=O)[O-])c2)cc1 (stereo not drawn) | 119 | 123 | 109 | 115 | 118 | 92.4 | 114 | 95.6 | 111 | 112 | 79.5 | 123 | 118 | 132 | 118 | 112 | 117 | 117 | 109 | 98.6 | 82.7 | 48.9 | 105 | 131 | 105 | 123 | 135 | 116 | 128 | 117 | 106 | 116 | 75.1
Cc1ccc(NC(=O)c2ccc(CN3CCN(C)CC3)cc2)cc1Nc1nccc(-c2cccnc2)n1 | 68.4 | 92.2 | 114 | 101 | 104 | 111 | 96.5 | 101 | 99.2 | 101 | 93.9 | 81.2 | 114 | 134 | 134 | 124 | 140 | 115 | 114 | 109 | 110 | 99.4 | 72 | 103 | 100 | 94.7 | 114 | 107 | 96.6 | 112 | 80.1 | 100 | 86.6
Clc1ccc(C2(c3ccc(-c4cn[nH]c4)cc3)CCNCC2)cc1 | 79.1 | 97.2 | 83.5 | 106 | 88.8 | 96.4 | 73.7 | 87.4 | 77.7 | 40.1 | 39.9 | 95.1 | 99 | 110 | 108 | 96.1 | 100 | 98.7 | 102 | 95.9 | 56.7 | 61 | 88.3 | 91.9 | 90.7 | 92.7 | 80.5 | 90.7 | 71.8 | 89.5 | 80.1 | 57.1 | 46.5
C[C@]\1(CCS\C(=N1)N)C2=CC(=C(F)C=C2F)C3=CN=CN=C3 | 80 | 95.5 | 91.6 | 94.5 | 90.4 | 94.6 | 108 | 99.3 | 102 | 102 | 29.3 | 92 | 84.1 | 98 | 104 | 106 | 95.7 | 96.6 | 114 | 71.2 | 5.19 | 2.28 | 95.1 | 80.4 | 107 | 111 | 103 | 96.4 | 101 | 108 | 95.8 | 51.3 | 2.95
Fc1cc(-c2cccc3ncc(-c4cnn(C5CCNCC5)c4)nc23)cc(F)c1CN1CCOCC1 | – | – | – | – | – | – | – | – | – | – | – | 110 | 113 | 107 | 110 | 112 | 105 | 103 | 95.8 | 27.4 | 25.7 | 16 | – | – | – | – | – | – | – | – | – | – | –
C#CCN(C)[C@H](C)Cc1ccccc1 | 32.3 | 83.6 | 87.3 | 83.5 | 70.2 | 91.8 | 93.1 | 90.2 | 89.5 | 87.2 | 92.5 | 34.7 | 91.5 | 103 | 107 | 83.4 | 95.9 | 62.6 | 70.9 | 95.7 | 86.3 | 90.5 | 27.1 | 89.6 | 99.3 | 97.9 | 70.8 | 89.6 | 81.1 | 86.9 | 89.1 | 93.8 | 86
COc1cc2c(Nc3ccc(NC(=O)c4ccccc4)cc3)ncnc2cc1OCCCN1CCOCC1 | 105 | 119 | 124 | 140 | 130 | 133 | 123 | 105 | 56.8 | 44.5 | 40.6 | 122 | 127 | 112 | 140 | 136 | 124 | 144 | 122 | 55 | 25.9 | 22.4 | – | – | – | – | – | – | – | – | – | – | –
CC#C[C@]1(O)CC[C@H]2[C@@H]/3CCC/4=C/C(=O)CCC4=C3[C@H](C[C@]12C)C5=CC=C(C=C5)N(C)C | 76.6 | 74.8 | 88.3 | 80.4 | 68.9 | 87.4 | 84.1 | 89.9 | 89.9 | 86.1 | 58.7 | 76 | 84.6 | 99.9 | 102 | 96 | 86.3 | 105 | 92.7 | 96.1 | 73 | 58.3 | 87.2 | 91.6 | 101 | 110 | 92 | 90.3 | 96 | 84 | 92.8 | 83 | 49.5
C=C(C)[C@@H]1CC[C@]2(C)CC[C@]3(C)[C@H](CC[C@@H]4[C@@]5(C)CC[C@H](O)C(C)(C)[C@@H]5CC[C@]43C)[C@@H]12 | 86.4 | 103 | 101 | 91.6 | 89 | 100 | 11 | 109 | 111 | 123 | 121 | 97.5 | 107 | 112 | 103 | 104 | 113 | 10 | 110 | 135 | 126 | 124 | 81.3 | 98.5 | 104 | 99.3 | 102 | 108 | 8.47 | 111 | 101 | 90.5 | 104
C1Cc2[nH]nc(-c3nn[nH]n3)c2C1 | 91.4 | 101 | 113 | 114 | 107 | 104 | 128 | 128 | 120 | 116 | 100 | 112 | 122 | 119 | 128 | 125 | 137 | 129 | 163 | 136 | 145 | 140 | 115 | 129 | 125 | 127 | 141 | 162 | 145 | 141 | 149 | 144 | 162
CN[C@H](CC(C)C)C(=O)N[C@H]1C(=O)N[C@@H](CC(N)=O)C(=O)N[C@H]2C(=O)N[C@H]3C(=O)N[C@H](C(=O)N[C@H](C(=O)O)c4cc(O)cc(O)c4-c4cc3ccc4O)[C@H](O)c3ccc(c(Cl)c3)Oc3cc2cc(c3O[C@@H]2O[C@H](CO)[C@@H](O)[C@H](O)[C@H]2O[C@H]2C[C@](C)(N)[C@H](O)[C@H](C)O2)Oc2ccc(cc2Cl)[C@H]1O | 94.2 | 94.3 | 124 | 112 | 125 | 111 | 128 | 89 | 126 | 129 | 122 | 127 | 114 | 120 | 130 | 144 | 143 | 148 | 126 | 138 | 131 | 142 | 112 | 126 | 125 | 138 | 126 | 114 | 131 | 95.9 | 138 | 118 | 110
CC/1=C/N([C@@H]2C[C@@H](O)[C@H](CO)O2)C(=O)NC1=O | 78.6 | 82 | 71.8 | 94.7 | 74 | 75.8 | 86.4 | 84.1 | 54.1 | 67.9 | 30.7 | 113 | 97.1 | 100 | 97.4 | 76.5 | 99.3 | 115 | 95.8 | 53.2 | 80.4 | 38 | 81.7 | 74.4 | 76.5 | 79.2 | 45.6 | 64.3 | 73.7 | 62.3 | 44.3 | 56.9 | 29.3
N[C@@H](C(=O)N[C@H]1[C@H]2SC\C(=C(/N2C1=O)C(O)=O)Cl)C3=CC=CC=C3 | 104 | 101 | 118 | 108 | 117 | 110 | 118 | 108 | 115 | 128 | 132 | – | – | – | – | – | – | – | – | – | – | – | 119 | 135 | 117 | 149 | 137 | 126 | 147 | 150 | 120 | 131 | 129
O=[N+]([O-])c1cn2c(n1)OC[C@@H](OCc1ccc(OC(F)(F)F)cc1)C2 | 105 | 97.3 | 108 | 115 | 109 | 101 | 96.3 | 89 | 86.7 | 92.4 | 90.5 | 120 | 112 | 118 | 144 | 117 | 129 | 137 | 125 | 114 | 122 | 132 | – | – | – | – | – | – | – | – | – | – | –
COCCOC(=O)C/1=C(C)/NC/2=C(C1C3=CC=CC(=C3)O)/C(=O)CC(C2)C4=C(OC)C=CC=C4 (stereo not drawn) | 90.2 | 80.6 | 106 | 108 | 98.2 | 87.7 | 100 | 101 | 94.3 | 57 | 30.1 | 98.9 | 96.8 | 97.8 | 126 | 103 | 90.6 | 115 | 90.8 | 78.5 | 45.6 | 24.4 | 80.8 | 79.2 | 122 | 104 | 105 | 82.4 | 102 | 101 | 74.1 | 50.9 | 21.7
COc1cc2nccc(Oc3ccc(NC(=O)C4(C(=O)Nc5ccc(F)cc5)CC4)cc3)c2cc1OC | 87.6 | 90.6 | 71.2 | 52.1 | 53.5 | 48.7 | 52.9 | 48.3 | 47.1 | 30.4 | 16.7 | 92.2 | 89.2 | 79.6 | 62.2 | 58.9 | 55.4 | 56 | 51.7 | 46.7 | 31.2 | 5.48 | 71.3 | 71.6 | 57.2 | 42.3 | 47.9 | 43.7 | 41.1 | 46.4 | 40.1 | 26.9 | 12.6

Reference: the supplement of paper PMC11451515
